Tested on: HBV (encapsidated HBV DNA, HepG2.2.15 cells)
Test: HBV replication inhibition assay, BDNA assay in HepG2.2.15 cells
Type: cell-based
Description: HBV replication inhibition by the disclosed compounds were determined in cells infected or transfected with HBV, or cells with stably integrated HBV, such as HepG2.2.15 cells (Sells et al. 1987). In this example, HepG2.2.15 cells were maintained in cell culture medium containing 10% fetal bovine serum (FBS), Geneticin, L-glutamine, penicillin and streptomycin. HepG2.2.15 cells were seeded in 96-well plates at a density of 40,000 cells/well and were treated with serially diluted compounds at a final DMSO concentration of 0.5% either alone or in combination by adding drugs in a checker box format. Cells were incubated with compounds for three days, after which medium was removed and fresh medium containing compounds was added to cells and incubated for another three days. At day 6, supernatant was removed and treated with DNase at 37° C. for 60 minutes, followed by enzyme inactivation at 75° C. for 15 minutes. Encapsidated HBV DNA was released from the virions and covalently linked HBV polymerase by incubating in lysis buffer (Affymetrix QS0010) containing 2.5 μg proteinase K at 50° C. for 40 minutes. HBV DNA was denatured by addition of 0.2 M NaOH and detected using a branched DNA (BDNA) QuantiGene assay kit according to manufacturer recommendation (Affymetrix). HBV DNA levels were also quantified using qPCR, based on amplification of encapsidated HBV DNA extraction with QuickExtraction Solution (Epicentre Biotechnologies) and amplification of HBV DNA using HBV specific PCR probes that can hybridize to HBV DNA and a fluorescently labeled probe for quantitation. In addition, cell viability of HepG2.2.15 cells incubated with test compounds alone or in combination was determined by using CellTitre-Glo reagent according to the manufacturer protocol (Promega). The mean background signal from wells containing only culture medium was subtracted from all other samples, and percent inhibition at each compound concentration was calculated by normalizing to signals from HepG2.2.15 cells treated with 0.5% DMSO using equation E1. % inhibition=(DMSOave−Xi)/DMSOave×100% E1: where DMSOave is the mean signal calculated from the wells that were treated with DMSO control (0% inhibition control) and Xi is the signal measured from the individual wells. EC50 values, effective concentrations that achieved 50% inhibitory effect, were determined by non-linear fitting using Graphpad Prism software (San Diego, Calif.) and equation E2: Y=Y min+(Y max −Y min)/(1+10(Log EC50−X)×HillSlope) E2: […]
where Y represents percent inhibition values and X represents the logarithm of compound concentrations.
Selected disclosed compounds were assayed in the HBV replication assay (BDNA assay), as described above and a representative group of these active compounds is shown in Table 6.

[1] = Hepatitis B virus, HepG2.2.15, Activity in BDNA-assay

## C[C@@H]1Cc2nn3c(c2CN1C(=O)Nc1cc(Cl)c(F)cc1Br)C(=O)N(CC(F)F)CCC3 [Compound 071, (R)—N-(2-bromo-5-chloro-4-fluorophenyl)-10-(2,2-difluoroethyl)-3-methyl-11-oxo-1,3,4,7,8,9,10,11-octahydro-2H-pyrido[4′,3′:3,4]pyrazolo[1,5-a][1,4]diazepine-2-carboxamide]
[1]
  EC50: 1 to 100 nM

## CN(C)C(=O)C1CN(C)C(=O)c2c3c(nn2C1)CCN(C(=O)Nc1ccc(F)c(Cl)c1)C3 (stereo not drawn) [Compound 032, N2-(3-chloro-4-fluorophenyl)-N8,N8,10-trimethyl-11-oxo-1,3,4,7,8,9,10,11-octahydro-2H-pyrido[4′,3′:3,4]pyrazolo [1,5-a][1,4]diazepine-2,8-dicarboxamide]
[1]
  EC50: 100 to 500 nM

## CN1CC(CNCC(F)F)Cn2nc3c(c2C1=O)CN(C(=O)Nc1ccc(F)c(Br)c1F)CC3 (single isomer, unassigned) [Compound 129_E2, (S*)—N-(3-bromo-2,4-difluorophenyl)-8-(((2,2-difluoroethyl)amino)methyl)-10-methyl-11-oxo-1,3,4,7,8,9,10,11-octahydro-2H-pyrido[4′,3′:3,4]pyrazolo[1,5-a][1,4]diazepine-2-carboxamide]
Activity in BDNA-assay
  EC50: 1 to 100 nM

## CN1CC(C(O)CCF)Cn2nc3c(c2C1=O)CN(C(=O)Nc1ccc(F)c(Cl)c1)CC3 (stereo not drawn) [Compound 115, N-(3-chloro-4-fluoro-phenyl)-8-(3-fluoro-1-hydroxy-propyl)-10-methyl-1-oxo-1,3,4,7,8,9-hexahydropyrido[2,3]pyrazolo[2,4-b][1,4]diazepine-2-carboxamide]
Activity in BDNA-assay
  EC50: 1 to 100 nM

## CN1CC([S+](C)[O-])Cn2nc3c(c2C1=O)CN(C(=O)Nc1ccc(F)c(Cl)c1)CC3 (single isomer, unassigned) [Compound 026A, N-(3-chloro-4-fluoro-phenyl)-10-methyl-8-methylsulfinyl-11-oxo-1,3,4,7,8,9-hexahydropyrido[2,3]pyrazolo[2,4-b][1,4]diazepine-2-carboxamide]
[1]
  EC50: > 1000 nM

## CN1C(=O)c2c3c(nn2CCC1C(=O)O)CCN(C(=O)Nc1ccc(F)c(Cl)c1)C3 (stereo not drawn) [Compound 058, 2-((3-chloro-4-fluorophenyl)carbamoyl)-10-methyl-11-oxo-1,3,4,7,8,9,10,11-octahydro-2H-pyrido[4′,3′:3,4]pyrazolo[1,5-a][1,4]diazepine-9-carboxylic acid]
[1]
  EC50: > 1000 nM

## C[C@@H]1Cc2nn3c(c2CN1C(=O)Nc1ccc(F)c(C(F)(F)F)c1)C(=O)N(C)C[C@@H](COCC(F)F)C3 [Compound 135_D1, (3R,8R)-8-((2,2-difluoroethoxy)methyl)-N-(4-fluoro-3-(trifluoromethyl)phenyl)-3,10-dimethyl-11-oxo-1,3,4,7,8,9,10,11-octahydro-2H-pyrido[4′,3′:3,4]pyrazolo[1,5-a][1,4]diazepine-2-carboxamide]
[1]
  EC50: 1 to 100 nM

## C[C@@H]1Cc2nn3c(c2CN1C(=O)Nc1ccnc(Br)c1F)C(=O)N(CC(F)F)CCC3 [Compound 075]
[1]
  EC50: 1 to 100 nM

## C[C@@H]1Cc2nn3c(c2CN1C(=O)Nc1ccc(F)c(C(F)(F)F)c1)C(=O)N(C)C[C@H](COCC(F)F)C3 [Compound 135_D2, (3R,8S)-8-((2,2-difluoroethoxy)methyl)-N-(4-fluoro-3-(trifluoromethyl)phenyl)-3,10-dimethyl-11-oxo-1,3,4,7,8,9,10,11-octahydro-2H-pyrido[4′,3′:3,4]pyrazolo[1,5-a][1,4]diazepine-2-carboxamide]
[1]
  EC50: 1 to 100 nM

## C[C@@H]1Cc2nn3c(c2CN1C(=O)Nc1ccc(F)c(Br)c1F)C(=O)N(C)CC(CO)C3 (single isomer, unassigned) [Compound 084_D2, (3R,8R*)—N-(3-bromo-2,4-difluorophenyl)-8-(hydroxymethyl)-3,10-dimethyl-11-oxo-1,3,4,7,8,9,10,11-octahydro-2H-pyrido[4′,3′:3,4]pyrazolo[1,5-a][1,4]diazepine-2-carboxamide]
Activity in BDNA-assay
  EC50: 1 to 100 nM

## C=CC(O)C1CN(C)C(=O)c2c3c(nn2C1)CC(C)N(C(=O)Nc1ccc(F)c(C(F)(F)F)c1)C3 [Compound 122_D2, (3R,8S*)—N-(4-fluoro-3-(trifluoromethyl)phenyl)-8-((S*)-1-hydroxyallyl)-3,10-dimethyl-11-oxo-1,3,4,7,8,9,10,11-octahydro-2H-pyrido[4′,3′:3,4]pyrazolo[1,5-a][1,4]diazepine-2-carboxamide]
Activity in BDNA-assay
  EC50: 100 to 500 nM

## CCOC(=O)C1(C)CN(C)C(=O)c2c3c(nn2C1)CCN(C(=O)Nc1ccc(F)c(Cl)c1)C3 (stereo not drawn) [Compound 052, ethyl 2-((3-chloro-4-fluorophenyl)carbamoyl)-8,10-dimethyl-11-oxo-1,3,4,7,8,9,10,11-octahydro-2H-pyrido[4′,3′:3,4]pyrazolo[1,5-a][1,4]diazepine-8-carboxylate]
[1]
  EC50: 100 to 500 nM

## C[C@@H]1Cc2nn3c(c2CN1C(=O)Nc1ccc(F)c(C#N)c1)C(=O)N(C)CC1(C3)CC(F)(F)C1 [Compound 143, (R)-N-(3-Cyano-4-fluorophenyl)-3,3-difluoro-3′,10′-dimethyl-11′-oxo-1′,3′,4′,9′,10′,11′-hexahydro-2′H,7′H-spiro[cyclobutane-1,8′-pyrido[4′,3′:3,4]pyrazolo[1,5-a][1,4]diazepine]-2′-carboxamide]
[1]
  EC50: 1 to 100 nM

## CN1CC(CNCC(F)F)Cn2nc3c(c2C1=O)CN(C(=O)Nc1cc(Cl)c(F)cc1F)CC3 (single isomer, unassigned) [Compound 126_E2, (S*)—N-(5-chloro-2,4-difluorophenyl)-8-(((2,2-difluoroethyl)amino)methyl)-10-methyl-11-oxo-1,3,4,7,8,9,10,11-octahydro-2H-pyrido[4′,3′:3,4]pyrazolo[1,5-a][1,4]diazepine-2-carboxamide]
Activity in BDNA-assay
  EC50: 100 to 500 nM

## Cc1cc(NC(=O)N2CCc3nn4c(c3C2)C(=O)N(C)CC(F)C4)ccc1F (stereo not drawn) [Compound 010, 8-fluoro-N-(4-fluoro-3-methylphenyl)-10-methyl-11-oxo-1,3,4,7,8,9,10,11-octahydro-2H-pyrido[4′,3′:3,4]pyrazolo[1,5-a][1,4]diazepine-2-carboxamide]
[1]
  EC50: 1 to 100 nM

## CN1C(=O)c2c3c(nn2CCC1(C)C(=O)O)CCN(C(=O)Nc1ccc(F)c(Cl)c1)C3 (stereo not drawn) [Compound 062, 2-((3-chloro-4-fluorophenyl)carbamoyl)-9,10-dimethyl-11-oxo-1,3,4,7,8,9,10,11-octahydro-2H-pyrido[4′,3′:3,4]pyrazolo[1,5-a][1,4]diazepine-9-carboxylic acid]
[1]
  EC50: > 1000 nM

## CN1CC(N2CCCCC2)Cn2nc3c(c2C1=O)CN(C(=O)Nc1ccc(F)c(Cl)c1)CC3 (stereo not drawn) [Compound 055, N-(3-chloro-4-fluorophenyl)-10-methyl-11-oxo-8-(piperidin-1-yl)-1,3,4,7,8,9,10,11-octahydro-2H-pyrido[4′,3′:3,4]pyrazolo[1,5-a][1,4]diazepine-2-carboxamide]
[1]
  EC50: 100 to 500 nM

## C[C@@H]1Cc2nn3c(c2CN1C(=O)Nc1ccc(F)c(C(F)(F)F)c1F)C(=O)N(C)CC(CO)C3 (single isomer, unassigned) [Compound 083_D2, (3R,8R*)—N-(2,4-difluoro-3-(trifluoromethyl)phenyl)-8-(hydroxymethyl)-3,10-dimethyl-11-oxo-1,3,4,7,8,9,10,11-octahydro-2H-pyrido[4′,3′:3,4]pyrazolo[1,5-a][1,4] diazepine-2-carboxamide]
Activity in BDNA-assay
  EC50: 1 to 100 nM
